Laboratory results reported in patent US7423054B2, “Therapeutic pyrazolo[3,4-b]pyridines and indazoles” (Warner Lambert Company LLC, priority 2004, dated 2008).
Counter-ions that a name gives are not always drawn.

Key:
[1] = target: T1, human serotonin transporter (hSERT) (Homo sapiens, UniProt P31645); assay: hSERT receptor binding ([125I]-RTI-55 displacement, membranes of transfected HEK-293 cells); settings: HEK-293 membranes, Ki from IC50 by Cheng-Prusoff, read-out: SERT Ki
T1 construct: expressed in transfected cells; host or cells: HEK-293 cells (membrane preparation)
Description: (§1) The ability of the compounds of the present invention to inhibit a norepinephrine transporter and/or a serotonin transporter can be determined using conventional radioligand receptor transport assays. The receptors can be heterologously expressed in cell lines and experiments conducted in membrane preparations from the cell lines that express a norepinephrine transporter and/or a serotonin transporter.
(§2) Cell pastes of HEK-293 cells transfected with a human serotonin transporter cDNA were prepared. The cell pastes were resuspended in 400 to 700 ml of Krebs-HEPES assay buffer (25 mM HEPES, 122 mM NaCl, 3 mM KCl, 1.2 mM MgSO4, 1.3 mM CaCl2, and 11 mM glucose, pH 7.4) with a Polytron homogenizer at Setting 7 for 30 seconds. Aliquots of membranes (˜2.5 mg/ml protein) were stored in liquid nitrogen until used.
Assays were set up in FlashPlates pre-coated with 0.1% PEI in a total volume of 250 μl containing: test compound (10^−5M to 10^−12M), cell membranes, and 50 pM [^125I]-RTI-55 (Perkin Elmer, NEX-272; specific activity 2200 Ci/mmol). The reaction was incubated and gently agitated for 90 minutes at room temperature, and terminated by removal of assay volume. Plates were covered, and bound [^125I]-RTI-55 was determined using a Wallac Trilux Beta Plate Counter. Test compounds were run in duplicate, and specific binding was defined as the difference between binding in the presence and absence of 10 μM citalopram.
Excel and GraphPad Prism software were used for data calculation and analysis. IC50 values were converted to Ki values using the Cheng-Prusoff equation. The Ki values (nM) for the hSERT are reported below in Table 11: […]

[2] = target: T2, human norepinephrine transporter (hNET) (Homo sapiens, UniProt P23975); assay: hNET receptor binding ([125I]-RTI-55 displacement, membranes of transfected HEK-293 cells); settings: HEK-293 membranes, Ki from IC50 by Cheng-Prusoff, read-out: NET Ki
T2 construct: expressed in transfected cells; host or cells: HEK-293 cells (membrane preparation)
Description: as §1
as §2, with “norepinephrine” for “serotonin”, “setting” for “Setting”, “(5” for “(˜2.5”
The binding assay was set up in Beckman deep-well polypropylene plates with a total volume of 250 μl containing: test compound (10^−5M to 10^−12M), cell membranes, and 50 pM [^125I]-RTI-55 (Perkin Elmer, NEX-272; specific activity 2200 Ci/mmol). The reaction was incubated by gentle agitation for 90 minutes at room temperature and was terminated by filtration through Whatman GF/C filter plates using a Brandel 96-well plate harvester. Scintillation fluid (100 μl) was added to each well, and bound [^125I]-RTI-55 was determined using a Wallac Trilux Beta Plate Counter. Test compounds were run in duplicate, and specific binding was defined as the difference between binding in the presence and absence of 10 μM desipramine.
Excel and GraphPad Prism software were used for data calculation and analysis. IC50 values were converted to Ki values using the Cheng-Prusoff equation. The Ki values (nM) for the hNET are reported below in Table 11.

T1 sequence (P31645 whole entry): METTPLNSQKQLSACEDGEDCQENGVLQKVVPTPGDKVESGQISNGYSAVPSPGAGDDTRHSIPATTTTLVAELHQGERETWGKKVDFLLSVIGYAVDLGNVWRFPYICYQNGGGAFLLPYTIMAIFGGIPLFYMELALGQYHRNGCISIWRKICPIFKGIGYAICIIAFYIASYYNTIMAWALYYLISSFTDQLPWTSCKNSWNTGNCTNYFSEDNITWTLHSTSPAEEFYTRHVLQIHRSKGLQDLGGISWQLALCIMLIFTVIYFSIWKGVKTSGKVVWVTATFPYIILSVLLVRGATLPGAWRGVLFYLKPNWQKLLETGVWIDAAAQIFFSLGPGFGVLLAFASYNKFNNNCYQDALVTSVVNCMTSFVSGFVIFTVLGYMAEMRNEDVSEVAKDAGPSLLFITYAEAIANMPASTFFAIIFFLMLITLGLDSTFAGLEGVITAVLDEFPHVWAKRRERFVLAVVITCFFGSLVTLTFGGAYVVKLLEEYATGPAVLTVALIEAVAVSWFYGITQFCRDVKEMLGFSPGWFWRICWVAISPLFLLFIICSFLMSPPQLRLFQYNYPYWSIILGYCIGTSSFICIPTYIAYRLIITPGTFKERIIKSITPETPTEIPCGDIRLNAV
T2 sequence (P23975 whole entry): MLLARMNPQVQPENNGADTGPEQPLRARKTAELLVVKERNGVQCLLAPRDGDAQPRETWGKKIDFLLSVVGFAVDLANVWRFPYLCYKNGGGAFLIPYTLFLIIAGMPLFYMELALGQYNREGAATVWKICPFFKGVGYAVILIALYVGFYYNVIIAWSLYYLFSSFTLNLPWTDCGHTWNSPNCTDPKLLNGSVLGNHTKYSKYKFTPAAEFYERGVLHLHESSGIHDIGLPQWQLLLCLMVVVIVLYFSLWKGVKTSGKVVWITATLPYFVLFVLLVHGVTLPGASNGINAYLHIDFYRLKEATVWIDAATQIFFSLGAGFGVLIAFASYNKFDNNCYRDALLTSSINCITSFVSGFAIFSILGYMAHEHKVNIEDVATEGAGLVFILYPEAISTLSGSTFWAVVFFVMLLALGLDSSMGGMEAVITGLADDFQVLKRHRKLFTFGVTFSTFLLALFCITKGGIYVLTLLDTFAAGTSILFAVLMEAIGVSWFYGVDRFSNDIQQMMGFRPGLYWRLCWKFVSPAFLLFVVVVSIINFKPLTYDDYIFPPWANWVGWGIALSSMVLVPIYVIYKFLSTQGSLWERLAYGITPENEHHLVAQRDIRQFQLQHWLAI

Row | Structure (SMILES) | Ki [1] [nM] | Ki [2] [nM]
1 | COc1cccc2c(OC3CCNCC3)nn(-c3ccccc3)c12 [Example 60, 7-Methoxy-1-phenyl-3-(piperidin-4-yloxy)-1H-indazole hydrochloride] | 76.7 | 221
2 | Clc1cccc2c(OC3CCNCC3)nn(-c3ccccc3)c12 [Example 61, 7-Chloro-1-phenyl-3-(piperidin-4-yloxy)-1H-indazole hydrochloride] | 21.7 | 20.4
3 | Cc1cccc2c1c(OC1CCNCC1)nn2-c1ccccc1 [Example 62, 4-Methyl-1-phenyl-3-(piperidin-4-yloxy)-1H-indazole hydrochloride] | 314 | 495
4 | Fc1ccc2c(OC3CCNCC3)nn(-c3ccccc3F)c2c1 [Example 63, 6-Fluoro-1-(2-fluoro-phenyl)-3-(piperidin-4-yloxy)-1H-indazole hydrochloride] | 19.4 | 39.5
5 | Clc1ccc2c(OC3CCNCC3)nn(-c3ccccc3)c2c1 [Example 64, 6-Chloro-1-phenyl-3-(piperidin-4-yloxy)-1H-indazole hydrochloride] | 272 | 512
6 | Fc1ccccc1-n1nc(OC2CCNCC2)c2cccc(C(F)(F)F)c21 [Example 65, 1-(2-fluorophenyl)-3-(piperidin-4-yloxy)-7-(trifluoromethyl)-1H-indazole hydrochloride] | 81.2 | 4330
7 | Cc1ccc2c(OC3CCNCC3)nn(-c3ccccc3)c2c1 [Example 71, 6-Methyl-1-phenyl-3-(piperidin-4-yloxy)-1H-indazole hydrochloride] | 20.5 | 95.5
8 | Cc1ccc2c(OC3CCNCC3)nn(-c3ccccc3F)c2c1 [Example 72, 1-(2-Fluoro-phenyl)-6-methyl-3-(piperidin-4-yloxy)-1H-indazole hydrochloride] | 9.76 | 27.4
9 | Fc1ccccc1-n1nc(OCC2CCCNC2)c2cc(Cl)ccc21 (stereo not shown) [Example 73, 5-Chloro-1-(2-fluoro-phenyl)-3-(piperidin-3-ylmethoxy)-1H-indazole hydrochloride] | 304 | 29.3
10 | Cc1ccc2c(OCC3CCCNC3)nn(-c3ccccc3F)c2c1 (stereo not shown) [Example 74, 1-(2-Fluoro-phenyl)-6-methyl-3-(piperidin-3-ylmethoxy)-1H-indazole hydrochloride] | 792 | 60.5
11 | Fc1cc2c(OC3CCNCC3)nn(-c3ccccc3F)c2cc1F [Example 75, 5,6-Difluoro-1-(2-fluoro-phenyl)-3-(piperidin-4-yloxy)-1H-indazole hydrochloride] | 39.8 | 36.4
12 | Fc1cc2c(OCC3CCCNC3)nn(-c3ccccc3F)c2cc1F (stereo not shown) [Example 76, 5,6-Difluoro-1-(2-fluoro-phenyl)-3-(piperidin-3-ylmethoxy)-1H-indazole hydrochloride] | 158 | 40.4
13 | Fc1cccc(-n2nc(OC3CCNCC3)c3cc(F)ccc32)c1 [Example 77, 5-Fluoro-1-(3-fluoro-phenyl)-3-(piperidin-4-yloxy)-1H-indazole hydrochloride] | 49.5 | 24.8
14 | Fc1cccc(-n2nc(OC[C@H]3CCCNC3)c3cc(F)ccc32)c1 [Example 78, (S)-5-Fluoro-1-(3-fluoro-phenyl)-3-(piperidin-3-ylmethoxy)-1H-indazole hydrochloride] | 39.9 | 10.2
15 | Fc1ccc(-n2nc(OC3CCNCC3)c3cc(F)ccc32)cc1 [Example 79, 5-Fluoro-1-(4-fluoro-phenyl)-3-(piperidin-4-yloxy)-1H-indazole hydrochloride] | 23.7 | 32.8
16 | Fc1ccc(-n2nc(OC[C@H]3CCCNC3)c3cc(F)ccc32)cc1 [Example 80, (S)-5-Fluoro-1-(4-fluoro-phenyl)-3-(piperidin-3-ylmethoxy)-1H-indazole hydrochloride] | 23.9 | 15
17 | Fc1cccc(-n2nc(OC3CCNCC3)c3c(F)cccc32)c1 [Example 81, 4-Fluoro-1(3-fluoro-phenyl)-3-(piperidin-4-yloxy)-1H-indazole hydrochloride] | 449 | 49.8
18 | Fc1cccc(-n2nc(OC[C@H]3CCCNC3)c3c(F)cccc32)c1 [Example 82, (S)-4-Fluoro-1-(3-fluoro-phenyl)-3-(piperidin-3-ylmethoxy)-1H-indazole hydrochloride] | 635 | 23.2
19 | Fc1ccc(-n2nc(OC3CCNCC3)c3c(F)cccc32)cc1 [Example 83, 4-Fluoro-1-(4-fluoro-phenyl)-3-(piperidin-4-yloxy)-1H-indazole hydrochloride] | 191 | 49.3
20 | Fc1ccc(-n2nc(OC[C@H]3CCCNC3)c3c(F)cccc32)cc1 [Example 84, (S)-4-Fluoro-1-(4-fluoro-phenyl)-3-(piperidin-3-ylmethoxy)-1H-indazole hydrochloride] | 487 | 38.1
21 | Fc1ccccc1-n1nc(OC[C@H]2CCCNC2)c2c(F)cccc21 [Example 85, (S)-4-Fluoro-1-(2-fluoro-phenyl)-3-(piperidin-3-ylmethoxy)-1H-indazole hydrochloride] | 1010 | 12.5
22 | Fc1cc2c(OCC3CCCNC3)nn(-c3ccccc3)c2cc1F (stereo not shown) [Example 86, 5,6-Difluoro-1-phenyl-3-(piperidin-3-ylmethoxy)-1H-indazole hydrochloride] | 101 | 114
23 | Fc1cc2c(OC3CCNCC3)nn(-c3ccccc3)c2cc1F [Example 87, 5,6-Difluoro-1-phenyl-3-(piperidin-4-yloxy)-1H-indazole hydrochloride] | 57 | 197
24 | Fc1ccc(-n2nc(OC3CCNCC3)c3c(F)cccc32)c(F)c1 [Example 88, 1-(2,4-Difluoro-phenyl)-4-fluoro-3-(piperidin-4-yloxy)-1H-indazole hydrochloride] | 88.1 | 16.3
25 | Fc1ccc(-n2nc(OC[C@H]3CCCNC3)c3c(F)cccc32)c(F)c1 [Example 89, (S)-1-(2,4-Difluoro-phenyl)-4-fluoro-3-(piperidin-3-ylmethoxy)-1H-indazole hydrochloride] | 403 | 22.4
26 | Fc1ccc(F)c(-n2nc(OC3CCNCC3)c3c(F)cccc32)c1 [Example 90, 1-(2,5-Difluoro-phenyl)-4-fluoro-3-(piperidin-4-yloxy)-1H-indazole hydrochloride] | 142 | 10.2
27 | Fc1ccc(F)c(-n2nc(OC[C@H]3CCCNC3)c3c(F)cccc32)c1 [Example 91, (S)-1-(2,5-Difluoro-phenyl)-4-fluoro-3-(piperidin-3-ylmethoxy)-1H-indazole hydrochloride] | 610 | 7.88
28 | Fc1ccc(-n2nc(OC[C@@H]3CCNC3)c3c(F)cccc32)c(F)c1 [Example 92, (R)-1-(2,4-Difluoro-phenyl)-4-fluoro-3-(pyrrolidin-3-ylmethoxy)-1H-indazole hydrochloride] | 126 | 28.5
29 | Fc1ccc(F)c(-n2nc(OC[C@@H]3CCNC3)c3c(F)cccc32)c1 [Example 93, (R)-1-(2,5-Difluoro-phenyl)-4-fluoro-3-(pyrrolidin-3-ylmethoxy)-1H-indazole hydrochloride] | 224 | 16.4
